Measurements from patent publication US20050042172A1, “Administration of medicaments by vaporisation” (priority 2001, published 2005).

How the values were obtained:
[1] = some clinical studies and anecdotal reports; a perception; cited from earlier work
[2] = Pain relief, THC alone versus cannabis extract
[3] = Reports of subjects taking THCV; assay type: in vivo
From the text: In a further aspect the invention also provides compositions which have specific ratios of tetrahydrocannabinovarin (THCV) or cannabidivarin (CBDV).

## C=C(C)[C@@H]1CCC(C)=C[C@H]1c1c(O)cc(CCCCC)cc1O [CBD, cannabidiol]
[1]
  effect on psychoactive effects of THC: modifies the psychoactive effects of THC

## CCCCCc1cc(O)c2c(c1)OC(C)(C)[C@@H]1CCC(C)=C[C@@H]21 [THC, tetrahydrocannabinol]
[2]
  degree of pain relief: lower degree of pain relief

## CCCc1cc(O)c2c(c1)OC(C)(C)[C@@H]1CCC(C)=C[C@@H]21 [THCV, tetrahydrocannabinovarin]
[3]
  hangover: less severe hangover
[3]; compared with THC
  mood enhancement: less disturbing than that produced by THC
